Measurements from patent US8383672B2, “Halogenated rhodamine derivatives and applications thereof” (Kiadis Pharma Canada Inc., priority 2001, dated 2013).
“Also recorded” adds a separate entry of the source.

Columns and labels:
Cytomegalovirus [1] = experiment: Antiviral assay against Cytomegalovirus in FS cells, with PDT treatment; assay type: cell-based, CMV (AD169); conditions: 50 uM, followed by PDT treatment (180 minutes, 30 Joules/cm^2)
Method: The antiviral assay was performed as described in Lin, L (2001). Human diploid fibroblast, foreskin cells (FS), were used in this assay. […].
(§1) FS cells were grown to confluency in shell vials. At the time of infection 2.5-3.5×10^5 cells were growing on each coverslip. The CMV (AD169) stock solution containing 1 mL of virus were quickly thawed, seeded and diluted following 100 fold dilutions in MEM (Earle's salt) supplemented with L-glutamine and 2% FBS, total volume 30 ml.
(§2) The titer of the virus have been determined at 10^−2 (10^4 TCID50) plaque forming units (pfu) in 0.2 ml. Therefore 1 mL used in the PDT experiments represents […]. A M. O. I. of 0.4-0.5 of CMV was used throughout this experiment.
(§3) The plates containing no rhodamines derivatives were treated with light in parallel to the non-light treated plates. The concentration used throughout the assay for the rhodamines derivatives was maintained at 50 uM. Following the addition of the derivatives to the viral stock solution, the plates were placed into the Theralux L6.30 device and illuminated for 180 minutes with 210 rpm agitation. The energy output was measured to be 30 Joules/cm^2. The non-PDT plate was placed into a 37° C. incubator for the same amount of time. Following this treatment time, dilutions were made and inoculated with the FS cells under centrifugation (2000 g, 60 minutes). Following the centrifugation, the cells are incubated 60 minutes at 37° C., 5% CO2, then are washed with the culture media and incubated for 18-24 hours at 37° C. at 5% CO2. Inoculation volume of each dilution was 0.2 ml, the dilutions made were 10^−3 to 10^−5 in duplicate.
The cells were fixed, removed from the vials and stained with labelled FITC (fluorescein isothiocyanate) Mab to CMV immediate early antigen.
CMV viral particles were counted. One fluorescent virus particle (kidney-shaped) represents one plaque forming unit.

S. epidermitis = experiment: Bacteriostatic activity of rhodamine derivatives against Staphilococcus epidermitis (photodynamic treatment, CFU/mL); assay type: cell-based; conditions: for decrease of bacterial growth (bacteriostatic effect): without extrusion time
Method: Staphilococcus epidermitis
(§4) The protocol used for the bacteriosidic inactivation was performed as described in Brasseur and coll. with few modifications for bacteriosidic potential assessment (Brasseur et al, 2000).
Bacterial was grown overnight in Lubria Broth medium (LB), 100 μl (≈1×10^7 bacteria) of each bacterial suspension was added to 4 ml of LB medium, a small aliquot of the bacterial suspension was taken out for bacterial titer prior to treatment expressed as CFU/mL. […] Each mixture of bacteria rhodamine derivative was incubated at 37° C. for 40 minutes. The bacteria-rhodamine suspensions were then treated and exposed to a 514 nm wavelength light for 180 minutes, for a total output energy of 30 Joules/cm^2. Following the treatment time, the bacteria-rhodamine suspensions were centrifuged at 3000 g, resuspended in 4 ml and serial dilutions were performed for each duplicate. 10 μL of the diluted bacterial suspensions were plated, the plates incubated overnight at 37° C. The bacteriostatic effect is expressed by the number of CFU/mL.
The protocol used for the bacteriosidic inactivation was performed as described in Brasseur and coll. without modification for bacteriosidic potential assessment (Brasseur et al, 2000).
Bacterial was grown overnight in Lubria Broth medium (LB), 100 μl (≈1×10^7 bacteria) of each bacterial suspension added to 4 ml of LB medium. A small aliquot of the bacterial suspension was taken out for bacterial titer prior to treatment. […] Each mixture of bacteria rhodamine derivative was incubated at 37° C. for 40 minutes. The bacterial suspensions were then centrifuged at 3000 g for 10 minutes, resuspended in 4 mL LB media and incubated for 90 minutes at 37° C. to allow extrusion of the derivatives. The bacteria rhodamines suspensions were then treated and exposed to a 514 nm wavelength light for 180 minutes, for a total output energy of 30 Joules/cm^2. Following the treatment time, serial dilutions were performed for each duplicate and 10 μL of the diluted bacterial suspension was plated, the plates incubated overnight at 37° C. The bacteriostatic effect is expressed by the number of colony forming units/mL.

S. typhimurium = experiment: Bacteriostatic activity of rhodamine derivatives against S. typhimurium (photodynamic treatment, CFU/mL); assay type: cell-based, Salmonella typhimurium; conditions: 50 μM; for antibacterial activity against S. typhimurium: 514 nm light 180 minutes, 30 Joules/cm^2; for log decrease of bacterial growth: S. typhimurium, without extrusion time
Method: as §4
(§5) Bacterial was grown overnight in Lubria Broth medium (LB), 100 μl (≈×10^7 bacteria) of each bacterial suspension was added to 4 ml of LB medium, a small aliquot of the bacterial suspension was taken out for bacterial titer prior to treatment expressed as CFU/mL. To the bacterial suspension was added the rhodamines derivatives, each derivative being tested in duplicate at a concentration of 50 μM. Each mixture of bacteria rhodamine derivative was incubated at 37° C. for 40 minutes. The bacteria-rhodamine suspensions were then treated and exposed to a 514 nm wavelength light for 180 minutes, for a total output energy of 30 Joules/cm^2. Following the treatment time, the bacteria-rhodamine suspensions were centrifuged at 3000 g, resuspended in 4 ml and serial dilutions were performed for each duplicate. 10 μL of the diluted bacterial suspensions were plated, the plates incubated overnight at 37° C. The bacteriostatic effect is expressed by the number of CFU/mL.

Cytomegalovirus [2] = experiment: Antiviral assay against Cytomegalovirus in FS cells, without PDT treatment; assay type: cell-based, CMV (AD169); conditions: 50 uM
Method: The antiviral assay was performed as described in Lin, L (2001). Human diploid fibroblast, foreskin cells (FS), were used in this assay.
as §1, §2
as §3, with “solution,” for “solution, the plates were placed into the Theralux L6.30 device and illuminated for 180 minutes with 210 rpm agitation. The energy output was measured to be 30 Joules/cm^2. The non-PDT plate was placed into a 37° C. incubator for the same amount of time. Following this treatment time,”, “duplicate. […]” for “duplicate.”
CMV viral particles were counted. […]

E. coli = experiment: Bacteriostatic activity of rhodamine derivatives against E. coli (photodynamic treatment, CFU/mL); conditions: for antibacterial activity against E. coli: 50 μM, 514 nm light 180 minutes, 30 Joules/cm^2; for log decrease of bacterial growth: E. coli, 50 uM, without extrusion time
Method: Bacterial was grown overnight in Lubria Broth medium (LB), 100 μl (≈1×10^7 bacteria) of each bacterial suspension was added to 4 ml of LB medium, a small aliquot of the bacterial suspension was taken out for bacterial titer prior to treatment expressed as CFU/mL (colony forming units per mL). To the bacterial suspension was added the rhodamines derivatives, each derivative being tested in duplicate at a concentration of 50 μM. Each mixture of bacteria rhodamine derivative was incubated at 37° C. for 40 minutes. The bacteria-rhodamine suspensions were then treated and exposed to a 514 nm wavelength light for 180 minutes, for a total output energy of 30 Joules/cm^2. Following the treatment time, the bacteria-rhodamine suspensions were centrifuged at 3000 g, resuspended in 4 ml and serial dilutions were performed for each duplicate. 10 μL of the diluted bacterial suspensions were plated, the plates incubated overnight at 37° C. The bacteriostatic effect is expressed by the number of CFU/mL.

P. aeruginosa = experiment: Bacteriostatic activity of rhodamine derivatives against P. aeruginosa (photodynamic treatment, CFU/mL); assay type: cell-based, Pseudomonas aeruginosa; conditions: 50 μM
Method: as §4
as §5, with “(≈1×10^7” for “(≈×10^7”

[3] = 50 μM, 514 nm light 180 minutes, 30 Joules/cm^2

Row | Compound | antiviral activity against Cytomegalovirus (Cytomegalovirus [1]) | antibacterial activity (section Staphilococcus epidermitis) (S. epidermitis; [3]) | antibacterial activity against S. epidermitis (S. epidermitis; 50 μM, extrusion time of 90 minutes prior to radiation treatment) | effect on bacterial growth (S. epidermitis; S. epidermitis, 50 μM, with 90 minutes extrusion time) | decrease of bacterial growth (bacteriostatic effect) (S. epidermitis; S. epidermitis, 50 μM) | antibacterial activity against S. typhimurium (S. typhimurium) | log decrease of bacterial growth (S. typhimurium) [logs] | antiviral activity against Cytomegalovirus (infectivity) (Cytomegalovirus [2]) | antibacterial activity against E. coli (E. coli) | log decrease of bacterial growth (E. coli) | antibacterial activity against S. epidermitis (S. epidermitis; 10 μM, 514 nm light 180 minutes, 30 Joules/cm^2) | decrease of bacterial growth (bacteriostatic effect) (S. epidermitis; S. epidermitis, 10 μM) | antiviral activity against Cytomegalovirus (infectivity) (Cytomegalovirus [2]; hydrochloride) | antibacterial activity against P. aeruginosa (P. aeruginosa; 514 nm light 180 minutes, 30 Joules/cm^2) | log decrease of bacterial growth (P. aeruginosa; P. aeruginosa, without extrusion time) [logs]
1 | CCN(CC)c1ccc2c(-c3ccccc3C(=O)OCCCBr)c3ccc(=[N+](CC)CC)cc-3oc2c1 [HA-VIII-92, rhodamine B 3-bromopropyl ester] | possess antiviral activity |  |  |  |  |  |  |  |  |  |  |  |  |  | 
2 | COC(=O)c1cc(Cl)c(Cl)cc1-c1c2ccc(=[N+](C)C)cc-2oc2cc(N(C)C)ccc12.[Cl-] [HA-X-40, 2′-(6-dimethylamino-3-dimethylimino-3H-xanthen-9-yl) 4′,5′-dichloro-benzoic acid methyl ester hydrochloride] | possess antiviral activity | showed antibacterial activity | showed antibacterial activity | eradicates bacterial growth | 2 logs |  |  |  |  |  |  |  |  |  | 
3 | COCCOCCOC(=O)c1ccccc1-c1c2ccc(=N)c(Br)c-2oc2c(Br)c(N)ccc12 [HA-X-44, 4,5-dibromorhodamine 110 2-(2-methoxyethoxy)ethyl esther] |  | showed antibacterial activity |  |  | eradicates bacterial growth | showed antibacterial activity | 5 | inhibit cytometalovirus infectivity; also recorded: did not need PDT treatment to possess antiviral activity | showed antibacterial activity | eradication |  |  |  |  | 
4 | CCN=c1c(C)cc2c(-c3ccccc3C(=O)OCC)c3cc(C)c(NCC)c(Br)c3oc-2c1Br [HA-X-171, 4,5-dibromorhodamine 6G] | possess antiviral activity |  |  |  |  |  |  |  | showed antibacterial activity | 3.7 logs | showed antibacterial activity | 6,5 logs |  |  | 
5 | COC(=O)c1ccccc1-c1c2ccc(=N)c(Br)c-2oc2c(Br)c(N)ccc12.Cl [TH9402, 4,5-dibromorhodamine 123 (2-(4,5-dibromo-6-amino-3-imino-3H-xanthen-9-yl)-benzoic acid methyl ester hydrochloride), reference compound] |  | showed antibacterial activity |  |  | inhibits bacterial growth | showed antibacterial activity | 6.7 |  | showed antibacterial activity | 7 logs |  |  | inhibit cytometalovirus infectivity; also recorded: did not need PDT treatment to possess antiviral activity | showed antibacterial activity | 2
6 | acetate salt of 2,7-dibromorhodamine B hexyl ester [HA-X-149] | possess antiviral activity | showed antibacterial activity |  |  | 4,5 logs |  |  |  |  |  |  |  |  |  | 
7 | acetate salt of 2,7-dibromorhodamine B methyl ester [HA-X-164] | possess antiviral activity | showed antibacterial activity |  |  | 3 logs | showed antibacterial activity | 0.3 |  | showed antibacterial activity | 0.25 logs |  |  |  |  | 
